Assay [1] addresses T1, Caspase-1 (Homo sapiens, UniProt P29466, D381E). Nature of the assay: Compound was tested for inhibitory activity against N-His (D381E) Interleukin -1 beta converting enzyme (combinatorially prepared compound).
In assay [2] the target is T1, Caspase-1. As to the kind of experiment: Compound was tested for inhibitory activity against N-His (D381E) Interleukin -1 beta converting enzyme (resynthesized compound).
Assay [3] addresses T1, Caspase-1. Nature of the assay: Compound was tested for binding affinity against N-His (D381E) Interleukin -1 beta converting enzyme.

SMILES strings stand for the structures. pIC50, pKi: −log10 of the molar value.

T1 sequence (P29466 120-297 limits assumed): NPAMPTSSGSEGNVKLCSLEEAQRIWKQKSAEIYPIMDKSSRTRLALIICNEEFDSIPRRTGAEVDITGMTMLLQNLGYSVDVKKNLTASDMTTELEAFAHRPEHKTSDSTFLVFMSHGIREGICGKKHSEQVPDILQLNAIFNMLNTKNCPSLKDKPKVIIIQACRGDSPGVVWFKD
T1 sequence (P29466 317-404 D381E limits assumed): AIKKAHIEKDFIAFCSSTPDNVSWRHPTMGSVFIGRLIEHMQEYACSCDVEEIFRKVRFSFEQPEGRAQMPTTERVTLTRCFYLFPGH

The term pIC50 denotes −log10 of the IC50, conventionally taken in molar units. Regarding `O=C(O)C[C@H](NC(=O)OCc1ccccc1)C(=O)COC(=O)Cc1c(Cl)cccc1Cl`, on Caspase-1 [1], the pIC50 was 6.13.

By pKi is commonly meant −log10 of the Ki, conventionally taken in molar units. Read a low pKi as a high Ki. In the case of `O=C(O)C[C@H](NC(=O)OCc1ccccc1)C(=O)COC(=O)CCc1ccccc1`, the negative logarithm of the IC50 (pIC50) on Caspase-1 [1] was 4.92; at Caspase-1 [2] it was 4.46. Also, the negative-log Ki (pKi) on Caspase-1 [3] was 5.35.

As for `O=C(O)C[C@H](NC(=O)OCc1ccccc1)C(=O)COC(=O)Cc1c(Cl)ccc(Cl)c1Cl`, the pIC50 on Caspase-1 [1] is 6.03.

For the compound `CC(=O)NC(C(=O)N[C@@H](CC(=O)O)C(=O)COC(=O)Cc1c(Cl)ccc(Cl)c1Cl)C(C)C` (stereo partly specified), the pIC50 was 8.30 on Caspase-1 [1] and 8.15 at Caspase-1 [2]. Also, the pKi on Caspase-1 [3] was 6.95.

For `CC(=O)NC(C(=O)N[C@@H](CC(=O)O)C(=O)COC(=O)Cc1c(Cl)cccc1Cl)C(C)C` (stereo partly specified), the pIC50 on Caspase-1 [1] was 8.30; at Caspase-1 [2], 8.10. The same compound showed a pKi at Caspase-1 [3] of 7.09.

(Values after ChEMBL document CHEMBL1130945, “Rapid optimization of an ICE inhibitor synthesis using multiple reaction conditions in a parallel array” (Bioorg Med Chem Lett, 1998).)
